Experimental data as given in the supplement of paper PMC10307832.

What was measured:
Test in all cases: relative viability (nuclei count vs DMSO), 5 days (fraction); higher = more cells survive
SK-MES-1 = system: SK-MES-1
Procedure, shortened: (§1)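 Relative viability was taken as the ratio of nuclei in treated wells to nuclei in vehicle wells. Lung cancer cell lines in 1536-well plates received compounds by pin tool one day after seeding, either one drug alone or a fixed anchor-drug dose plus five library-drug doses (not always all listed) in √10 steps. Nuclei were counted on 4× images after 5 days of treatment, and values are medians of duplicate plates.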

COR-L 105 = system: COR-L 105
Procedure, shortened: as §1

HCC-827 = system: HCC-827
Procedure, shortened: as §1

HCC-44 = system: HCC-44
Procedure, shortened: as §1

SW 900 = system: SW 900
Procedure, shortened: as §1

NCI-H2087 = system: NCI-H2087
Procedure, shortened: as §1

H3255 = system: H3255
Procedure, shortened: as §1

NCI-H1793 = system: NCI-H1793
Procedure, shortened: as §1

NCI-H1975 = system: NCI-H1975
Procedure, shortened: as §1

NCI-H1915 = system: NCI-H1915
Procedure, shortened: as §1

NCI-H2023 = system: NCI-H2023
Procedure, shortened: as §1

`Cc1csc(=NC2CCCCC2)n1/N=C/c1ccc(O)c(O)c1O` [MIM1] + O=C(CCCCCCC(=O)Nc1ccccc1)NO [Vorinostat] (partner 1 µM) showed a relative viability (SK-MES-1; first compound 0.2 µM) of 1.02, a relative viability (SK-MES-1; first compound 0.6325 µM) of 0.953 and a relative viability (SK-MES-1; first compound 2 µM) of 0.959. It also gave a relative viability (SK-MES-1; first compound 6.325 µM) of 0.594, a relative viability (SK-MES-1; first compound 20 µM) of 0.2 and a relative viability (COR-L 105; first compound 0.2 µM) of 0.809. It also gave a relative viability (COR-L 105; first compound 0.6325 µM) of 0.821, a relative viability (COR-L 105; first compound 2 µM) of 0.774 and a relative viability (COR-L 105; first compound 6.325 µM) of 0.731. It also gave a relative viability (COR-L 105; first compound 20 µM) of 0.616, a relative viability (HCC-827; first compound 0.2 µM) of 0.871 and a relative viability (HCC-827; first compound 0.6325 µM) of 0.731. The relative viability (HCC-827; first compound 2 µM) was 0.777, the relative viability (HCC-827; first compound 6.325 µM) was 0.231 and the relative viability (HCC-827; first compound 20 µM) was 0.349. It also gave a relative viability (HCC-44; first compound 0.2 µM) of 1.1, a relative viability (HCC-44; first compound 0.6325 µM) of 1.1 and a relative viability (HCC-44; first compound 2 µM) of 1.01. For the same compound, the relative viability (HCC-44; first compound 6.325 µM) was 1.08, the relative viability (HCC-44; first compound 20 µM) was 0.324 and the relative viability (SW 900; first compound 0.2 µM) was 0.45. The relative viability (SW 900; first compound 0.6325 µM) was 0.632, the relative viability (SW 900; first compound 2 µM) was 0.549 and the relative viability (SW 900; first compound 6.325 µM) was 0.175. For the same compound, the relative viability (SW 900; first compound 20 µM) was 0.187, the relative viability (NCI-H2087; first compound 0.2 µM) was 0.68 and the relative viability (NCI-H2087; first compound 0.6325 µM) was 0.536. It also gave a relative viability (NCI-H2087; first compound 2 µM) of 0.877, a relative viability (NCI-H2087; first compound 6.325 µM) of 0.596 and a relative viability (NCI-H2087; first compound 20 µM) of 0.497. For the same compound, the relative viability (H3255; first compound 0.2 µM) was 0.776, the relative viability (H3255; first compound 0.6325 µM) was 0.901 and the relative viability (H3255; first compound 2 µM) was 0.759. For the same compound, the relative viability (H3255; first compound 6.325 µM) was 0.67, the relative viability (H3255; first compound 20 µM) was 0.321 and the relative viability (NCI-H1793; first compound 0.2 µM) was 0.783. For the same compound, the relative viability (NCI-H1793; first compound 2 µM) was 0.732, the relative viability (NCI-H1793; first compound 6.325 µM) was 0.649 and the relative viability (NCI-H1793; first compound 20 µM) was 0.553. For the same compound, the relative viability (NCI-H1975; first compound 0.2 µM) was 0.682, the relative viability (NCI-H1975; first compound 0.6325 µM) was 0.708 and the relative viability (NCI-H1975; first compound 2 µM) was 0.644. For the same compound, the relative viability (NCI-H1975; first compound 6.325 µM) was 0.239, the relative viability (NCI-H1975; first compound 20 µM) was 0.204 and the relative viability (NCI-H1915; first compound 0.2 µM) was 0.527. For the same compound, the relative viability (NCI-H1915; first compound 0.6325 µM) was 0.429, the relative viability (NCI-H1915; first compound 2 µM) was 0.442 and the relative viability (NCI-H1915; first compound 6.325 µM) was 0.343. For the same compound, the relative viability (NCI-H1915; first compound 20 µM) was 0.17, the relative viability (NCI-H2023; first compound 0.2 µM) was 0.55 and the relative viability (NCI-H2023; first compound 0.6325 µM) was 0.58. It also gave a relative viability (NCI-H2023; first compound 2 µM) of 0.391, a relative viability (NCI-H2023; first compound 6.325 µM) of 0.194 and a relative viability (NCI-H2023; first compound 20 µM) of 0.0736.
